This is an account of results in publication PMC8198049, “Synthesis and Evaluation of the Tetracyclic Ring-System of Isocryptolepine and Regioisomers for Antimalarial, Antiproliferative and Antimicrobial Activities” (Molecules, 2021).

Counter-ions that a name gives are not always drawn. Like-named read-outs stand apart in the source and are kept apart here. Where only a bound is given, the exact number is not on record here.

Series [1] in a line: Cytotoxicity assay (resazurin-based viability). Type of series: cell-based. The following applies: human, HEK293 cells, mean ± standard deviation, two separate experiments. The method, then:
Fluorescence was measured using an EnSight plate reader (PerkinElmer, Waltham, MA, USA).

Series [2] concerns HCT116 (human colon cancer). Put plainly: Antiproliferative assay (resazurin). Type of series: cell-based. The note with it: for IC50: Homo sapiens, HCT-116, 72 h compound incubation, mean ± sem, two separate experiments. The method, then:
(§1) Compounds tested in the antiproliferative assays were tested in 11 dilution points (0.02 µM–40 µM or 0.04 µM–80 µM). […] HCT116 cells were maintained in McCoy’s 5A media (Life Technologies, CA, USA), MDA-MB-231 cells were cultured in DMEM media (Life Technologies) with 10 mM HEPES (Life Technologies), whilst PC-3 cells were maintained in RPMI media (Life Technologies). All media were supplemented with 10% heat-inactivated fetal bovine serum (Australian source; Corning, CA, USA) and all cells were incubated at 37 °C in a humidified incubator with 5% CO2. Cells were seeded in 384-well plates (Greiner Bio-One, NC, USA) using the respective complete media. After 24 h cell seeding, compounds were added and antiproliferative activity was determined using the resazurin assay after 72 h compound incubation. Briefly, cells were incubated with 60 µM resazurin (Cayman, MI, USA) for 6 h at 37 °C and fluorescence signals were measured using a microplate reader (EnSight, PerkinElmer, Waltham, MA, USA).
(Resazurin is reduced to fluorescent resorufin, in cell work by metabolically active cells.)

For series [3], the system named is PC-3 (human prostate cancer). Put plainly: Antiproliferative assay (resazurin). Type of series: cell-based. The following applies: for IC50: Homo sapiens, 72 h compound incubation, mean ± sem, two separate experiments. The method, then:
as §1

Series [4] concerns MDA-MB-231 (human breast adenocarcinoma). Briefly: Antiproliferative assay (resazurin). It counts as cell-based. The following applies: for IC50: Homo sapiens, MDA-MB-231, 72 h compound incubation, mean ± sem, two separate experiments. The method, then:
as §1

Series [5] is described as follows: Antiplasmodial imaging assay. It counts as cell-based, Plasmodium falciparum. The note with it: human (HEK293) and Plasmodium falciparum (3D7). The method, then: (§2) Compounds tested in the antiproliferative assays were tested in 11 dilution points (0.02 µM–40 µM or 0.04 µM–80 µM).
(§3) Antiplasmodial activity was determined as previously described by Duffy and Avery. […] After incubation, plates were stained with 4’,6-diamidino-2-phenylindole (DAPI) in a permeabilization buffer for 5 h at rt in the dark. Plates were imaged on the Opera confocal microplate image reader (PerkinElmer).

Series [6] relates to Plasmodium falciparum 3D7 strain. Put plainly: Antiplasmodial imaging assay. Type of series: cell-based. The note with it: P. falciparum 3D7, 72 h, mean ± standard deviation, two separate experiments; for IC50: Plasmodium falciparum. The method, then: as §2, §3
Where [7] appears, read: HEK293 cells versus Plasmodium falciparum 3D7 culture, HEK293 vs 3D7, read-out: SI (selectivity index = cytotoxicity in HEK293/activity in 3D7).

As a reminder, the melting point is the temperature of the solid-liquid transition. `C[n+]1cccc2c3c(ccc21)[nH]c1ccccc13` (as salt: hydroiodid) [Compound 10, 4-Methyl-7H-pyrido[2,3-c]carbazolium Iodide] returned a melting point of 284 to 286 °C.

Take `C[n+]1cccc2c3[nH]c4ccccc4c3ccc21` (as salt: hydroiodid) [Compound 21, 4-Methyl-11H-pyrido[3,2-a]carbazolium Iodide]: the melting point is 279 to 280 °C.

In general, IC50 refers to the concentration that gives 50% inhibition. Read a high IC50 as weaker potency in that assay. `CCN(CC)CCCC(C)Nc1ccnc2cc(Cl)ccc12` (centres unmarked) [Chloroquine, chloroquine, reference compound] displayed an IC50 at 72 h in series [1] of over 4000 nM.

The molecule `CCn1cc2c3ccccc3nc-2c2ccccc21` [Compound 3b, 5-Ethyl-5H-indolo[3,2-c]quinoline] came in with a melting point of 198 °C. In series [2], the concentration for half-maximal inhibition (IC50) came out at 742 ± 11 nM. In addition, in series [3], the IC50 was 2440 ± 94 nM. Besides, inhibition in series [4] was half-maximal at 998 ± 300 nM (IC50). For the same molecule, the selectivity ratio at 72 h in series [5] (setting [7]) was 2.3. Also, in series [6], the IC50 stood at 1318 ± 5 nM. In series [1], this molecule had an IC50 at 72 h of 3080 ± 49 nM.

Turning to `C=CCn1cc2c3ccccc3nc-2c2ccccc21` [Compound 3c, 5-Allyl-5H-indolo[3,2-c]quinoline], the IC50 was determined as 1240 ± 80 nM in series [2], 1300 ± 51 nM in series [3], 3060 ± 467 nM in series [4] and 1200 ± 32 nM in series [6]. The selectivity ratio at 72 h in series [5] (setting [7]) amounted to 2.6. Besides, in series [1], the midpoint of inhibition, the IC50 at 72 h, lay at 3150 ± 40 nM.

For the molecule `c1ccc2c(c1)[nH]c1c3cccnc3ccc21` [Compound 16, 11H-pyrido[3,2-a] carbazole], in series [2] (HCT116, 80 µM), the “% at 80 µM (printed in HCT116 IC50 column)” value came out at 82% at 80 µM. Further, in series [4] (MDA-MB-231, 80 µM), the “% at 80 µM (printed in MDA-MB-231 IC50 column)” value is recorded as 80% at 80 µM. Also, in series [6] (listed as 15), the “3D7 IC50” value is on record as “little to no activity”.

`c1cnc2c(c1)ccc1c3ccccc3[nH]c12` [Compound 18, 11H-Pyrido[2,3-a]carbazole] yielded a melting point of 164 °C.

`c1cnc2c(c1)ccc1[nH]c3ccccc3c12` [Compound 20, 7H-Pyrido[3,2-c]carbazole]: the IC50 was determined as 17000 nM in series [2], 16400 nM in series [4] and 2410 ± 42 nM in series [6]. In addition, in series [3] (PC-3, 40 µM), the “% at 40 µM (PC-3)” value is 47% at 40 µM.

As to `C[C@H]1[C@@H](O)O[C@@H]2O[C@@]3(C)CC[C@H]4[C@H](C)CC[C@@H]1[C@@]24OO3` [DHA, dihydroartemisinin, reference compound], the selectivity ratio at 72 h in series [5] (setting [7]) was found to be 74. For the same molecule, in series [6], the IC50 was found to be 1 ± 0.07 nM.

Take `COc1cccc2c1C(=O)c1c(O)c3c(c(O)c1C2=O)C[C@@](O)(C(=O)CO)C[C@@H]3O[C@H]1C[C@H](N)[C@H](O)[C@H](C)O1` [Doxorubicin, reference compound]: the IC50 in series [2] stood at 150 nM; in series [3], 830 nM; in series [4] it was 590 nM.

For `COc1ccc(C[C@H](N)C(=O)N[C@H]2[C@@H](O)[C@H](n3cnc4c(N(C)C)ncnc43)O[C@@H]2CO)cc1` [Puromycin, puromycin, reference compound], the IC50 in series [2] was 85 nM; in series [3], 270 nM; in series [4], 300 nM; in series [6], 93 ± 2 nM. Further, the selectivity ratio at 72 h in series [5] worked out at 0.03. The molecule also registered a concentration for half-maximal inhibition (IC50) at 72 h in series [1] of 3 ± 3 nM.
